This passage reports EC50 and AC50 results from ChEMBL document CHEMBL1201862, “PubChem BioAssay data set” (2004).

Data set [1] relates to Streptococcus sp. 'group A'. The experiment in a line: Streptococcus pyogenes SK(-)GAS viability under kanamycin – luminescence, BacTiterGlo, confirmation, counter-screen for streptokinase expression inhibitor project, dose response (AID 1900). Type of data set: functional, organism-based. (The purpose of a counterscreen is to sort out artefacts and off-target activity.)
Another data set deals with T1, Streptokinase A (Streptococcus pyogenes serotype M1, UniProt P10520).
T1 sequence (P10520 whole entry): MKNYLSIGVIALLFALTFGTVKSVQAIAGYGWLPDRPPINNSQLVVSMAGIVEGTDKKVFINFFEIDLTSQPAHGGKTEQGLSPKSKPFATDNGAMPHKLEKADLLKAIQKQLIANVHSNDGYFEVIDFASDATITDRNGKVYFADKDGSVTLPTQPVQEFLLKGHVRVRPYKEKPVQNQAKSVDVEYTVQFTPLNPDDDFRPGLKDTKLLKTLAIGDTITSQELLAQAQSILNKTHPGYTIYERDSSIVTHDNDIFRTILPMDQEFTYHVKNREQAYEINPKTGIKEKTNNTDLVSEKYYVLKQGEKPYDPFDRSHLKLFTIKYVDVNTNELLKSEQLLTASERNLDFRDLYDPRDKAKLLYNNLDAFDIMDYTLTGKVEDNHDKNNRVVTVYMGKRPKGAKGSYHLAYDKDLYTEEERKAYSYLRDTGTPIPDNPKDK
The experiment in a line: viability-normalized secreted streptokinase activity reduction – plasminogen activation absorbance, OD405, dose response (AID 1914).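 Further: secreted streptokinase activity via plasminogen activation per viability signal from cell pellet.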 Type of data set: functional, Streptococcus pyogenes M1 GAS.

The subject of a further data set is Streptococcus. Kind of data set: GAS UMAA2166 growth inhibition – luminescence, BacTiterGlo, counter-screen for streptokinase expression inhibitor project, dose response (AID 1915).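 Further: potency for reduction of bacterial viability or growth.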 It counts as functional, organism-based.
Data set [2] is described as follows: Luminescence Cell-Based Dose Retest to Confirm Inhibitors of Cancer Stem Cells. [Related pubchem assays (depositor defined):AID2717, AID2721]. Type of data set: functional. As to conditions: Homo sapiens.
Data set [3] deals with T2, Heat shock factor protein 1 (Mus musculus, UniProt P38532).
T2 sequence (P38532 whole entry): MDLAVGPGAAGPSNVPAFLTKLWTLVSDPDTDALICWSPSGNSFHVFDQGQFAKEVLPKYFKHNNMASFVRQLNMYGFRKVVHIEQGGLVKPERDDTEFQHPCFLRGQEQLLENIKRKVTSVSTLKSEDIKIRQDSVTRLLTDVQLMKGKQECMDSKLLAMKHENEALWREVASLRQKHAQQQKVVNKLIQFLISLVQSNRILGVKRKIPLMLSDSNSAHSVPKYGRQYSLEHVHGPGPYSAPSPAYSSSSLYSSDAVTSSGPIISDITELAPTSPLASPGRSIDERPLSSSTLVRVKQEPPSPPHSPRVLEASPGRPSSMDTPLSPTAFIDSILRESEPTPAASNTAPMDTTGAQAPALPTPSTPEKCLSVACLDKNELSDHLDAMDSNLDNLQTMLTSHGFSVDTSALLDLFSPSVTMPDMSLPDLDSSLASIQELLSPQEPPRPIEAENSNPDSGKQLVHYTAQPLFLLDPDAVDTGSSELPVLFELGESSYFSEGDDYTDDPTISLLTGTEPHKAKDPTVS
The experiment in a line: decrease of HSF1-responsive luciferase luminescence – cell-based, NIH3T3, dose retest, confirmation (AID 2382).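 Further: NIH3T3 fibroblasts with HSF1-driven luciferase reporter stressed by proteasome inhibitor MG132; luminescence from HSF1-driven luciferase expression after 8 hours of MG132 stress.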 Type of data set: functional.

A further data set has as its target Cytochrome P450 2C19 (Homo sapiens, UniProt P33261). The experiment in a line: Cytochrome panel assay with activity outcomes. Panel member name: p450-cyp2c19 Compounds with AC50 equal or less than 10 uM are considered active. It counts as functional.
The target in a further data set is Cytochrome P450 2D6 (Homo sapiens, UniProt P10635).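 Further: CYP2D6 member of a cytochrome P450 panel assay.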
Another data set addresses T3, Cytochrome P450 1A2 (Homo sapiens, UniProt P05177).
T3 sequence (P05177 whole entry): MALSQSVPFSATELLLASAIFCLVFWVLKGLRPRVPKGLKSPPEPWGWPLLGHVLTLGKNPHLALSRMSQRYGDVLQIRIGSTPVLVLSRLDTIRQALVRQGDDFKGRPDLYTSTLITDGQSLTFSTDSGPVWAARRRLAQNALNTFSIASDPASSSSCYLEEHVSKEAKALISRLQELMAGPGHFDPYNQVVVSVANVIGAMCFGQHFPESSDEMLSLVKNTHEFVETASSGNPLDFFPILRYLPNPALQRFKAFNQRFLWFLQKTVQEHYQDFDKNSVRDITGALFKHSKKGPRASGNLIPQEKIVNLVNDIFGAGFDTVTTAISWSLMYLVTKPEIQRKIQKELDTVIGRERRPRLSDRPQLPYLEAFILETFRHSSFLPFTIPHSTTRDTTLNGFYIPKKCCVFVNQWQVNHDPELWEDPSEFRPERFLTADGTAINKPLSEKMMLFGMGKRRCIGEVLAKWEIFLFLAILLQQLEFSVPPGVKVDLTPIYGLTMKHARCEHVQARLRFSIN

Another data set has as its system INS1. Kind of data set: INS-1E survival protection against cytokine death – cell-based, luminescence, retest, dose response (AID 449756).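 Further: cell death triggered by IL-1 beta plus TNF-alpha plus IFN-gamma mixture; protective hits raise ATP signal compared with cytokine alone wells.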 As to conditions: Rattus norvegicus. It counts as functional.
A further data set deals with Cytochrome P450 2C9 (Homo sapiens, UniProt P11712).
A short description of data set [4]: reduction of Shn3 3'UTR-driven luciferase in osteoblasts – cell-based, Clone20 osteoblasts, firefly luciferase, cherry-picked, dose response (AID 624132).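 Further: firefly luciferase luminescence from reporter carrying the Shn3 3'UTR in osteoblasts.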 It counts as functional.
Data set [5] can be described thus: non-specific 3'UTR reporter inhibition in Clone20-Shn3RL – cell-based, Renilla luciferase, cherry-picked, counter-screen for Shn3 inhibitor project, dose response (AID 624133). It counts as functional.

Activity calls are given as the source filed them.

Chain of Cytochrome P450 2D6 (P10635 whole entry): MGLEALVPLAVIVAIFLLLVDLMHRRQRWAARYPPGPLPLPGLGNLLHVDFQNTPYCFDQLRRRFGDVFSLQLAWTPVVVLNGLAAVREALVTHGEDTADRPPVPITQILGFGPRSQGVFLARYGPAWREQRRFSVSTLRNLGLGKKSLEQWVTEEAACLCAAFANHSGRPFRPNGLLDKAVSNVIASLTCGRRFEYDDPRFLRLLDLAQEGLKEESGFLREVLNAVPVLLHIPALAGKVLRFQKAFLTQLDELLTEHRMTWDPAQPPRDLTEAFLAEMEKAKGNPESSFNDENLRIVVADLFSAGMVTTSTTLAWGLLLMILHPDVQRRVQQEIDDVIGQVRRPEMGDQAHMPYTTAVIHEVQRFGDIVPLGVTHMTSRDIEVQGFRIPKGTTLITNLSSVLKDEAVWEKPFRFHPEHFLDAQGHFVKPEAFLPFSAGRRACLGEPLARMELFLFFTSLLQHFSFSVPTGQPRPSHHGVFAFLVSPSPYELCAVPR
Chain of Cytochrome P450 2C19 (P33261 whole entry): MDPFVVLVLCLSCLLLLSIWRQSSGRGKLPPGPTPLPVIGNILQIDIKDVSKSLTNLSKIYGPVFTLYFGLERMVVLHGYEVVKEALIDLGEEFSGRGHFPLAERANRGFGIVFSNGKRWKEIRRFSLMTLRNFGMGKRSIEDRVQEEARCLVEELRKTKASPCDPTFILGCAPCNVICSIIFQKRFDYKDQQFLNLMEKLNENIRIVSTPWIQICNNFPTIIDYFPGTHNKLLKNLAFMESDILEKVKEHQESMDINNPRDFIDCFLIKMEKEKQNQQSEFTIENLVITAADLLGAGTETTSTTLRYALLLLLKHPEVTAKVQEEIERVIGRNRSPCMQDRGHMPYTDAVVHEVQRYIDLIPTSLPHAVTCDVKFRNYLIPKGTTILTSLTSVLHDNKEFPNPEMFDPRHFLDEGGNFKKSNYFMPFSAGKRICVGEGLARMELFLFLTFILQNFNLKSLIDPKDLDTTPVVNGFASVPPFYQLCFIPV
Chain of Cytochrome P450 2C9 (P11712 whole entry): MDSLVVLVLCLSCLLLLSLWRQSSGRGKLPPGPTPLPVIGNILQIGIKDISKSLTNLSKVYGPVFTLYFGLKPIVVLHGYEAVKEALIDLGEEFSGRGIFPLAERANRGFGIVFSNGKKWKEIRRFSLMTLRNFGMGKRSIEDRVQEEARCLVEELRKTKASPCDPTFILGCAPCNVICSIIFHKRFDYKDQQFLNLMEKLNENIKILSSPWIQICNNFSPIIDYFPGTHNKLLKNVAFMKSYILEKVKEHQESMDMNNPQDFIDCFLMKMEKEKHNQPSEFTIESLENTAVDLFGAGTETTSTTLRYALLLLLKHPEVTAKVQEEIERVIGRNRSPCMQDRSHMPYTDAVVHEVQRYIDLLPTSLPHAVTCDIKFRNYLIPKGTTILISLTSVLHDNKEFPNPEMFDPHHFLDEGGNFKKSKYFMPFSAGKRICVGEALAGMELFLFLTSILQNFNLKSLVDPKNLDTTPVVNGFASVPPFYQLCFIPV

Consider `COc1cccc(/C=C/C(=C2/C(=O)N(c3ccccc3)N=C2C)c2ccc(Br)cc2)c1OC`, for which the half-maximal effective concentration (EC50) (in data set [1]; on Streptokinase A; with Streptococcus) was > 150 µM (not active) each time. Also, the AC50 (commonly the concentration at which the activity in the assay is half-maximal) in data set [2] is > 195 µM (inactive).
Turning to `COc1ccc(OC)c(/N=C2\SCCCN2C(=O)c2ccc(N3C(=O)CCC3=O)cc2)c1`, the EC50 – broadly, the midpoint of the concentration-response curve – in [3] is > 195 µM (not active).
Consider `COc1ccccc1-c1cncnc1NCc1cnc(C)cn1`, for which the AC50 at Cytochrome P450 2C19 (read-out: AC50) is 31.6 µM (inconclusive); on Cytochrome P450 2D6 it was 39.8 µM (inconclusive); at Cytochrome P450 1A2, 20 µM (inconclusive).
Take `CC(=O)c1ccc(NC(=O)C2CCN(S(=O)(=O)c3cccc4cccnc34)CC2)cc1`: in data set [3], the concentration giving a half-maximal response (EC50) is > 195 µM (not active).
The same measure, in the same setting: with `CCN(c1ccccc1)S(=O)(=O)c1ccc(Cl)c(NC(=O)CSc2nnc(C)s2)c1` the figure was > 195 µM (not active).
On to `COc1ccc(OC)c(C2N(c3cc(C)on3)C(=O)C3CCCN32)c1` (stereo not given), for which the AC50 result was “inconclusive” on Cytochrome P450 2C19 and 25.1 µM (inconclusive) at Cytochrome P450 1A2.
For `COc1ccc(C2=NOC(C(=O)NCCN3CCOCC3)C2)cc1` (stereo not given), the AC50 on Cytochrome P450 1A2 was 31.6 µM (inconclusive).
In the case of `O=C(C(Sc1ccccc1)c1ccccc1)N1CCN(c2ccccc2F)CC1` (stereo not given), the AC50 in the data set on INS1 is > 120 µM (inactive).
With `C(#Cc1ccccc1)CN1CCN(c2ccccn2)CC1`, the EC50 in data set [3] is > 195 µM (not active).
The same measure, in the same setting: with `Nc1nc2n(c1C(=O)c1ccccc1)CCC2` the figure was 78 µM (active); with `C/C(=N\O)C1CCCCC1`, > 195 µM (not active).
Still for that read-out and setting: with `O=C(CC(Nc1ccc(Cl)cc1Cl)C(=O)O)c1ccccc1` (stereo not given) the figure was < 0.16 µM (active).
On to `NC1(C(=O)O)CCC1` [1-AMINOCYCLOBUTANE CARBOXYLIC ACID], for which, on Cytochrome P450 1A2, the AC50 is 39.8 µM (inconclusive).
Consider `CCNc1ncc2nc(-c3ccc(F)cc3)c(=O)n(CCOC)c2n1`, for which the AC50 is 3.98 µM (inconclusive) at Cytochrome P450 2D6 and 2 µM (inconclusive) at Cytochrome P450 1A2.
Turning to `CCOc1ccc(C(Nc2ccc(C)cc2)P2(=O)OCC(C)(C)CO2)cc1` (stereo not given), the values for the AC50 at Cytochrome P450 1A2 and at Cytochrome P450 2C9 were 39.8 µM (inconclusive) and 20 nM (inconclusive), respectively.
With `CCOC(=O)Cc1csc(SCC(=O)c2c(N)n(CC(C)C)c(=O)n(C)c2=O)n1`, the AC50 in [4] is 2.35 µM (active); in data set [5] it was 8.62 µM (active).
For `COC(=O)c1ccccc1NC(=O)CSc1nnc(C(CO)NC(=O)c2ccccc2)n1C` (stereo not given), the concentration for a half-maximal effect (EC50) in data set [3] is on record as > 195 µM (not active).
On the same count and under the same terms, with `COc1cccc(C(=O)Nc2ccc(NC(=O)C3CC=CCC3C(=O)O)cc2)c1` (stereo not given) the figure was > 195 µM (not active).
For the compound `CC1CCOC2(O1)C(=O)N(CN1CCN(c3ccccc3F)CC1)c1ccccc12` (stereo not given), the AC50 is 11.2 µM (inconclusive) at Cytochrome P450 2C19 (read-out: AC50), 25.1 µM (inconclusive) at Cytochrome P450 2D6 and 2 µM (inconclusive) at Cytochrome P450 1A2.
Take `Cc1cccc(CCNC(=O)CC2C(=O)NCCN2Cc2ccccc2C)n1` (stereo not given): the EC50 (in [1]; on Streptokinase A; with Streptococcus) was > 150 µM (not active) throughout.
Consider `COc1ccc(C)cc1NC(=O)NC1CCCc2ccccc21` (stereo not given), for which the EC50 (in data set [1]; at Streptokinase A; in the data set with Streptococcus) was > 150 µM (not active) each time.
With `Cc1ccc(S(=O)(=O)c2cc3ccccc3o/c2=N\c2ccc3c(c2)OCO3)cc1`, the AC50 is 7.94 µM (inconclusive) on Cytochrome P450 2D6, 2.82 µM (inconclusive) at Cytochrome P450 1A2 and 3550 nM (inconclusive) at Cytochrome P450 2C9.
As to `CCOC(=O)C1=C(COc2ccc(F)cc2Cl)NC(=O)NC1c1cc(C)ccc1C` (stereo not given), at Cytochrome P450 1A2, the AC50 was 17.8 µM (inconclusive).
For `COc1ccc(N(C)S(=O)(=O)c2cccc(C(=O)Nc3nc(C)c(C(C)=O)s3)c2)cc1`, the AC50 in the data set with INS1 was 28.3 µM (active).
Turning to `CCN(CC)CCOc1ccc2nc(N(C)C)sc2c1`, the AC50 on Cytochrome P450 2D6 and on Cytochrome P450 1A2 was 15.8 µM (inconclusive) throughout.
For the compound `CCn1c(C(C#N)/C(=N\S(=O)(=O)c2cccs2)c2ccccc2)nc2ccccc21` (stereo not given), the EC50 in data set [3] was > 195 µM (not active).
Regarding `CCOC(=O)c1c(C)nc2c(c1-c1ccc(OC)cc1)C(=O)CC(C)(C)C2`, the AC50 at Cytochrome P450 1A2 was 14.1 µM (inconclusive).
With `COc1ccc(CN2C(=O)c3ccccc3C(/C=N/OCc3ccc(Cl)cc3)C2=O)cc1` (stereo not given), the concentration for a half-maximal effect (EC50) in data set [1] was 1.44 µM (active); at Streptokinase A, > 150 µM (not active); in the data set with Streptococcus, 8.28 µM (active).
On to `CC1(C)NC(=O)N(CC(O)CN(c2ccccc2)S(=O)(=O)c2ccc([N+](=O)[O-])cc2)C1=O` (stereo not given), for which, in data set [3], the EC50 is on record as > 195 µM (not active).
Consider `CCc1ccccc1N(CC(=O)N1CCCC1)S(C)(=O)=O`, for which the EC50 in data set [3] is given as > 195 µM (not active).
With `O=S(=O)(c1ccccc1)N1CCN=C1SCc1c(F)cccc1Cl`, the EC50 was 18.4 µM (active) at Streptokinase A and > 150 µM (not active) in the data set on Streptococcus.
In the case of `Cc1ccc(OP(=O)(Nc2cccc(C)c2)Oc2ccc(C)cc2)cc1`, the EC50 in [1] is 13 µM (active); at Streptokinase A it was 5.1 µM (active); in the data set with Streptococcus, 28.9 µM (active).
For `C/C(CC(=O)Nc1ccccc1C(F)(F)F)=N\NC(=O)c1cnccn1`, in [3], the EC50 is reported as > 195 µM (not active).
The same measure, in the same setting: the result for `O=C(Nc1ccccc1N1CCCC1)c1cccnc1Cl` reads > 195 µM (not active).
With `CC(=O)N1c2ccc(S(=O)(=O)N3CCC(C(=O)N4CCN(c5ccccc5F)CC4)CC3)cc2CC1C` (stereo not given), the AC50 in [4] is 5.41 µM (active); in data set [5], 2.42 µM (active).
With `NC(=O)C1CCCN(C(=O)c2ccc3oc(Cc4ccc(Cl)cc4)nc3c2)C1` (stereo not given), in [3], the EC50 is given as > 195 µM (not active).
With `COc1ccccc1C(=O)NC(=S)Nc1ccc(NC(=O)c2ccco2)cc1`, the EC50 was > 150 µM (not active) on Streptokinase A and 114 µM (inconclusive) in the data set on Streptococcus.
Regarding `CCc1ccc(NC(=O)C2C3CCC(O3)C2C(=O)O)cc1` (stereo not given), the EC50 in data set [3] was 67 µM (active).
Still for that read-out and setting: with `COc1cc(C(=O)N2CCSCC2)ccc1OC1CCN(C(C)=O)CC1` the figure was > 195 µM (not active).
For the compound `N[C@H](Cc1ccccc1)c1nnn[nH]1`, on Cytochrome P450 1A2, the AC50 is 10 µM (inconclusive).
As for `O=C(c1ccco1)N1CCC2(CCN(Cc3ccncc3)CC2)CC1`, the AC50 on Cytochrome P450 2D6 was 10 µM (inconclusive); at Cytochrome P450 1A2 it was 20 µM (inconclusive).
Regarding `COc1ccc2c(C(=O)NCc3ccc4c(c3)OCO4)c(-c3ccc(S(C)(=O)=O)cc3)sc2c1`, the AC50 in the data set with INS1 is 6.76 µM (active).
In the case of `COc1ccc(C2=NN(S(C)(=O)=O)C(c3cccs3)C2)cc1OC` (stereo not given), in data set [3], the EC50 was > 195 µM (not active).
The same measure, in the same setting: the result for `O=C(CCNS(=O)(=O)c1cccc2nsnc12)NCc1cccs1` reads > 195 µM (not active).
